# Where “and” joins values, the source holds several entries; their conditions need not be identical. Equal entries are not always repeated.
# Test system: J774.2 mouse macrophages
# Test: LPS-induced cytokine and chemokine levels in J774.2 mouse macrophage cell supernatant (ELISA)
# Assay type: cell-based
# Conditions: for CXCL1 % reduction / CXCL1 [pg/mL] Mean / CXCL2 % reduction / CXCL2 [pg/mL] Mean / MMP9 % reduction / MMP9 [pg/mL] Mean: J774.2 cells; for CXCL1 % reduction / CXCL1 [pg/mL] Mean / CXCL2 % reduction / CXCL2 [pg/mL] Mean / MMP9 % reduction / MMP9 [pg/mL] Mean / CCl2, % reduction / CCl2, Mean / GM-CSF % reduction / GM-CSF Mean / IL-1β % reduction / IL-1β Mean / IL-6 % reduction / IL-6 Mean / TNF-α % reduction / TNF-α Mean / CCl2 / CXCL1 / GM-CSF / IL-1β / IL-6 / TNF-α: LPS; for CCl2, % reduction / CCl2, Mean / GM-CSF % reduction / GM-CSF Mean / IL-1β % reduction / IL-1β Mean / IL-6 % reduction / IL-6 Mean / TNF-α % reduction / TNF-α Mean / CCl2 / CXCL1 / GM-CSF / IL-1β / IL-6 / TNF-α: J774.2 supernatant; for CCl2 / CXCL1 / GM-CSF / IL-1β / IL-6 / TNF-α: individual replicate
compound,measurement,setting,value
C=C[C@]1(C)C[C@@H](OC(=O)CS[C@@H]2CC[C@@H](N)C[C@H]2O)[C@]2(C)[C@H](C)CC[C@]3(CCC(=O)[C@H]32)[C@@H](C)[C@@H]1O [Lefamulin],CXCL1 % reduction,compound 0.03 µM,-4.29%
same,CXCL1 [pg/mL] Mean,compound 0.03 µM,27 pg/mL
same,CXCL2 % reduction,compound 0.03 µM,3%
same,CXCL2 [pg/mL] Mean,compound 0.03 µM,31653 pg/mL
same,MMP9 % reduction,compound 0.03 µM,2.7%
same,MMP9 [pg/mL] Mean,compound 0.03 µM,939 pg/mL
same,CXCL1 % reduction,compound 0.1 µM,0.477%
same,CXCL1 [pg/mL] Mean,compound 0.1 µM,25 pg/mL
same,CXCL2 % reduction,compound 0.1 µM,7%
same,CXCL2 [pg/mL] Mean,compound 0.1 µM,30382 pg/mL
same,MMP9 % reduction,compound 0.1 µM,16%
same,MMP9 [pg/mL] Mean,compound 0.1 µM,819 pg/mL
same,CXCL1 % reduction,compound 0.3 µM,-4.29%
same,CXCL1 [pg/mL] Mean,compound 0.3 µM,27 pg/mL
same,CXCL2 % reduction,compound 0.3 µM,0.626%
same,CXCL2 [pg/mL] Mean,compound 0.3 µM,32419 pg/mL
same,MMP9 % reduction,compound 0.3 µM,14%
same,MMP9 [pg/mL] Mean,compound 0.3 µM,840 pg/mL
same,CXCL1 % reduction,compound 1 µM,-0.703%
same,CXCL1 [pg/mL] Mean,compound 1 µM,26 pg/mL
same,CXCL2 % reduction,compound 1 µM,-10%
same,CXCL2 [pg/mL] Mean,compound 1 µM,35898 pg/mL
same,MMP9 % reduction,compound 1 µM,2.38%
same,MMP9 [pg/mL] Mean,compound 1 µM,942 pg/mL
same,CXCL1 % reduction,compound 3 µM,-7.61%
same,CXCL1 [pg/mL] Mean,compound 3 µM,28 pg/mL
same,CXCL2 % reduction,compound 3 µM,-7%
same,CXCL2 [pg/mL] Mean,compound 3 µM,34917 pg/mL
same,MMP9 % reduction,compound 3 µM,7%
same,MMP9 [pg/mL] Mean,compound 3 µM,900 pg/mL
same,CXCL1 % reduction,compound 10 µM,-36%
same,CXCL1 [pg/mL] Mean,compound 10 µM,35 pg/mL
same,CXCL2 % reduction,compound 10 µM,-7%
same,CXCL2 [pg/mL] Mean,compound 10 µM,34821 pg/mL
same,MMP9 % reduction,compound 10 µM,14%
same,MMP9 [pg/mL] Mean,compound 10 µM,838 pg/mL
same,CXCL1 % reduction,compound 30 µM,-238%
same,CXCL1 [pg/mL] Mean,compound 30 µM,87 pg/mL
same,CXCL2 % reduction,compound 30 µM,-16%
same,CXCL2 [pg/mL] Mean,compound 30 µM,37862 pg/mL
same,MMP9 % reduction,compound 30 µM,60%
same,MMP9 [pg/mL] Mean,compound 30 µM,423 pg/mL
same,CXCL1 % reduction,compound 100 µM,-827%
same,CXCL1 [pg/mL] Mean,compound 100 µM,237 pg/mL
same,CXCL2 % reduction,compound 100 µM,-16%
same,CXCL2 [pg/mL] Mean,compound 100 µM,37744 pg/mL
same,MMP9 % reduction,compound 100 µM,96%
same,MMP9 [pg/mL] Mean,compound 100 µM,91 pg/mL
same,IL-6 and IL-1β levels in supernatant,J774.2 macrophages,trend toward reduction
same,"levels of the measured LPS-induced cytokines, chemokines, or MMP-9 in supernatants","J774.2 mouse macrophages, concentrations tested (0.03 to 10 μM shown)",little to no reduction
same,"CCl2, % reduction",0.03 µM,1.79%
same,"CCl2, Mean",0.03 µM,35400 pg/mL
same,GM-CSF % reduction,0.03 µM,52%
same,GM-CSF Mean,0.03 µM,672 pg/mL
same,IL-1β % reduction,0.03 µM,-26%
same,IL-1β Mean,0.03 µM,241 pg/mL
same,IL-6 % reduction,0.03 µM,-14%
same,IL-6 Mean,0.03 µM,88112 pg/mL
same,TNF-α % reduction,0.03 µM,-16%
same,TNF-α Mean,0.03 µM,1587 pg/mL
same,CCl2,0.03 µM,33453 pg/mL and 37346.9 pg/mL
same,CXCL1,0.03 µM,25.7 pg/mL and 27.7 pg/mL
same,GM-CSF,0.03 µM,625.6 pg/mL and 719.3 pg/mL
same,IL-1β,0.03 µM,233.691 pg/mL and 247.723 pg/mL
same,IL-6,0.03 µM,83483 pg/mL and 92741 pg/mL
same,TNF-α,0.03 µM,1586.9 pg/mL and 1587.5 pg/mL
same,"CCl2, % reduction",0.1 µM,8%
same,"CCl2, Mean",0.1 µM,33260 pg/mL
same,GM-CSF % reduction,0.1 µM,50%
same,GM-CSF Mean,0.1 µM,691 pg/mL
same,IL-1β % reduction,0.1 µM,-10%
same,IL-1β Mean,0.1 µM,209 pg/mL
same,IL-6 % reduction,0.1 µM,-11%
same,IL-6 Mean,0.1 µM,85917 pg/mL
same,TNF-α % reduction,0.1 µM,-16%
same,TNF-α Mean,0.1 µM,1579 pg/mL
same,CCl2,0.1 µM,30882.1 pg/mL and 35637.1 pg/mL
same,CXCL1,0.1 µM,26.3 pg/mL and 24.7 pg/mL
same,GM-CSF,0.1 µM,718.9 pg/mL and 663.8 pg/mL
same,IL-1β,0.1 µM,208.032 pg/mL and 210.141 pg/mL
same,IL-6,0.1 µM,86925 pg/mL and 84909 pg/mL
same,TNF-α,0.1 µM,1571.9 pg/mL and 1586.9 pg/mL
same,"CCl2, % reduction",0.3 µM,0.431%
same,"CCl2, Mean",0.3 µM,35870 pg/mL
same,GM-CSF % reduction,0.3 µM,54%
same,GM-CSF Mean,0.3 µM,647 pg/mL
same,IL-1β % reduction,0.3 µM,-6%
same,IL-1β Mean,0.3 µM,202 pg/mL
same,IL-6 % reduction,0.3 µM,-13%
same,IL-6 Mean,0.3 µM,87246 pg/mL
same,TNF-α % reduction,0.3 µM,-8.54%
same,TNF-α Mean,0.3 µM,1483 pg/mL
same,CCl2,0.3 µM,32973.5 pg/mL and 38766.3 pg/mL
same,CXCL1,0.3 µM,24.9 pg/mL and 28.5 pg/mL
same,GM-CSF,0.3 µM,644.4 pg/mL and 648.8 pg/mL
same,IL-1β,0.3 µM,202.166 pg/mL and 201.189 pg/mL
same,IL-6,0.3 µM,86199 pg/mL and 88294 pg/mL
